Assay results reported in patent publication US9447449B2, “Recombinant mycobacteriophages for delivery of nucleic acids of interest into mycobacteria” (Albert Einstein College of Medicine of Yeshiva University, priority 2011, dated 2016).

System: M. tuberculosis mc^26230
Assay type: cell-based

Compound | MFI relative to untreated control | average fluorescence decreased by [%] | effect of 18 hr pre-treatment prior to phage addition on DST signal | six hour pre-incubation to determine drug sensitivity | fluorescence of the M. tuberculosis cells diminished by
NNC(=O)c1ccncc1 [isoniazid] | lower than the untreated control | 64 | increased the difference between treated and non-treated samples | not sufficient | –
NC[C@H]1O[C@H](O[C@H]2[C@H](O)[C@@H](O[C@H]3O[C@H](CO)[C@@H](O)[C@H](N)[C@H]3O)[C@H](N)C[C@@H]2N)[C@H](O)[C@@H](O)[C@@H]1O [kanamycin] | – | – | – | – | approximately 85%
CO[C@H]1/C=C/O[C@@]2(C)Oc3c(C)c(O)c4c(O)c(c(/C=N/N5CCN(C)CC5)c(O)c4c3C2=O)NC(=O)/C(C)=C\C=C\[C@H](C)[C@H](O)[C@@H](C)[C@@H](O)[C@@H](C)[C@H](OC(C)=O)[C@@H]1C [rifampicin] | – | – | – | – | approximately 85%
